The assay relates to P388 leukemia ip, CD2F1 mice, survival T/C. The assay is described as follows: NCI In Vivo Anticancer Drug Screen. Data for tumor model P388 Leukemia (intraperitoneal) in CD2F1 (CDF1) mice. The settings on record: endpoint: median survival time, higher = longer survival. The method, boiled down: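 Mice carrying the transplanted tumor received test compound or vehicle. Survival was recorded in each group, and the value is the treated-group measurement divided by that of the vehicle-treated control group.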

The mark [1] stands for this setting: dose: 50.0 mg/kg/injection, schedule: Q01DX005 (ip), vehicle: saline with Tween-80.
The mark [2] stands for this setting: dose: 100.0 mg/kg/injection, schedule: Q01DX005 (ip), vehicle: saline with Tween-80.
[3] abbreviates: dose: 200.0 mg/kg/injection, schedule: Q01DX005 (ip), vehicle: saline with Tween-80.
Setting [4] is: dose: 60.0 mg/kg/injection, schedule: Q01DX005 (ip), vehicle: saline with Tween-80.
[5] abbreviates: dose: 120.0 mg/kg/injection, schedule: Q01DX005 (ip), vehicle: saline with Tween-80.
Where [6] appears, read: dose: 12.5 mg/kg/injection, schedule: Q01DX009 (ip), vehicle: Klucel (hydroxypropylcellulose) (HPC).
The mark [7] stands for this setting: dose: 25.0 mg/kg/injection, schedule: Q01DX009 (ip), vehicle: Klucel (hydroxypropylcellulose) (HPC).
Where [8] appears, read: dose: 50.0 mg/kg/injection, schedule: Q01DX009 (ip), vehicle: Klucel (hydroxypropylcellulose) (HPC).
Setting [9] is: dose: 100.0 mg/kg/injection, schedule: Q01DX009 (ip), vehicle: Klucel (hydroxypropylcellulose) (HPC).
Where [10] appears, read: dose: 50.0 mg/kg/injection, schedule: Q01DX005 (ip), vehicle: saline.
Setting [11] is: dose: 100.0 mg/kg/injection, schedule: Q01DX005 (ip), vehicle: saline.
[12] abbreviates: dose: 50.0 mg/kg/injection, schedule: Q01DX005 (ip), vehicle: Klucel (hydroxypropylcellulose) (HPC).
The mark [13] stands for this setting: dose: 100.0 mg/kg/injection, schedule: Q01DX005 (ip), vehicle: Klucel (hydroxypropylcellulose) (HPC).
The mark [14] stands for this setting: dose: 200.0 mg/kg/injection, schedule: Q01DX005 (ip), vehicle: Klucel (hydroxypropylcellulose) (HPC).
The mark [15] stands for this setting: dose: 200.0 mg/kg/injection, schedule: Q01DX009 (ip), vehicle: Klucel (hydroxypropylcellulose) (HPC).

Molecules are shown by their SMILES. Values joined by “and” are separate entries in the source; they are usually repeats but may differ in a detail not shown here. Equal entries are not always repeated. Inconclusive results and toxic doses are left out.

In PubChem BioAssay AID330 (DTP/NCI, 2004) one finds T/C data, which are given here for 25 molecules.

As to `O=C1c2ccccc2C(Br)CCC1Br` (stereo unspecified), the T/C (dose: 100.0 mg/kg/injection, schedule: Q01DX009 (ip), vehicle: distilled water + Tween-80 + alcohol) was 115 % of control; the T/C (dose: 200.0 mg/kg/injection, schedule: Q01DX009 (ip), vehicle: distilled water + Tween-80 + alcohol) was 115 % of control; the T/C (dose: 400.0 mg/kg/injection, schedule: Q01DX009 (ip), vehicle: distilled water + Tween-80 + alcohol) is 113 % of control.
As for `Oc1cc(Cl)c(O)c(-c2ccccc2)c1Cl`, the T/C by setting is: under setting [1], 102 % of control; under setting [2], 102 % of control; under setting [3], 90 % of control.
With `NNC(=O)COc1ccc(Br)cc1Br`, the T/C was 95 % of control under setting [4] and 97 % of control under setting [5].
Consider `CC#CC#C/C(=C/C=CC(=O)OC)SC`, for which the T/C runs as follows: under setting [6], 110 % of control; under setting [7], 106 % of control; under setting [8], 101 % of control; under setting [9], 104 % of control.
Consider `CN(CCCCCC(=O)O)c1ccncc1`, for which the T/C was 103 % of control under setting [10]; 100 % of control under setting [11]; 108 % of control (dose: 200.0 mg/kg/injection, schedule: Q01DX005 (ip), vehicle: saline).
As for `NS(=O)(=O)c1ccc(Cl)c(Cl)c1`, the T/C is 90 % of control (dose: 100.0 mg/kg/injection, schedule: Q04DX003 (ip), vehicle: saline with Tween-80); 90 % of control (dose: 200.0 mg/kg/injection, schedule: Q04DX003 (ip), vehicle: saline with Tween-80); 90 % of control (dose: 400.0 mg/kg/injection, schedule: Q04DX003 (ip), vehicle: saline with Tween-80).
`O=C1NN=C2CCCCCCCCCCC12` (stereo unspecified): the T/C was 96 % of control (dose: 50.0 mg/kg/injection, schedule: Q01DX009 (ip), vehicle: saline with Tween-80); 89 % of control (dose: 100.0 mg/kg/injection, schedule: Q01DX009 (ip), vehicle: saline with Tween-80); 89 % of control (dose: 200.0 mg/kg/injection, schedule: Q01DX009 (ip), vehicle: saline with Tween-80).
`CCOC(=O)N(C)CCc1cc(OC)c(OC)cc1/C=C\c1ccc(OC)c(OC)c1`: the T/C was 100 % of control (dose: 12.5 mg/kg/injection, schedule: Q01DX001 (ip), vehicle: saline + alcohol); 98 % of control (dose: 25.0 mg/kg/injection, schedule: Q01DX001 (ip), vehicle: saline + alcohol); 98 % of control (dose: 50.0 mg/kg/injection, schedule: Q01DX001 (ip), vehicle: saline + alcohol).
Turning to `c1ccc2c(c1)ccc1c3ccccc3sc21`, the T/C is 101 % of control under setting [12], 110 % of control under setting [13] and 103 % of control under setting [14].
Taken in the same sequence, the figures for `COC(=O)c1cc(=O)n(C)[nH]1` were 104 % of control, 105 % of control and 98 % of control.
For `COc1ccc(C(=O)CCc2cccc(NC(=O)CCl)c2)cc1`, the T/C is, setting by setting: under setting [4], 91 % of control; under setting [5], 100 % of control; (dose: 240.0 mg/kg/injection, schedule: Q01DX005 (ip), vehicle: saline with Tween-80) 102 % of control.
As for `COc1ccc(C/C(N)=N\O)cc1`, the T/C under setting [8] is 108 % of control, the T/C under setting [9] is 106 % of control and the T/C under setting [15] is 117 % of control.
As to `C=CCCCC1(c2ccccc2)C(=O)Oc2ccccc21` (stereo unspecified), the T/C is 98 % of control under setting [1], 89 % of control under setting [2] and 90 % of control under setting [3].
Regarding `CCC(C)/C(=C\C#N)NCCCN/C(=C/C#N)C(C)CC` (stereo unspecified), the T/C by setting is: (dose: 3.75 mg/kg/injection, schedule: Q01DX005 (ip), vehicle: Klucel + Tween-80) 100 % of control; (dose: 7.5 mg/kg/injection, schedule: Q01DX005 (ip), vehicle: Klucel + Tween-80) 109 % of control; (dose: 15.0 mg/kg/injection, schedule: Q01DX005 (ip), vehicle: Klucel + Tween-80) 92 % of control and 98 % of control; (dose: 60.0 mg/kg/injection, schedule: Q01DX005 (ip), vehicle: Klucel + Tween-80) 86 % of control; (dose: 120.0 mg/kg/injection, schedule: Q01DX005 (ip), vehicle: Klucel (hydroxypropylcellulose) (HPC)) 88 % of control.
As for `COC(=O)Nc1nc2cc(OC)c(OC)cc2c(=O)[nH]1`, the T/C is 111 % of control (dose: 25.0 mg/kg/injection, schedule: Q01DX005 (ip), vehicle: saline with Tween-80) and 107 % of control under setting [1].
As to `Cc1nc2c(cnn2C)c(=O)n1-c1ccccc1`, the T/C runs as follows: under setting [12], 96 % of control; under setting [13], 98 % of control; under setting [14], 100 % of control.
Regarding `O=C(/C=C\c1ccc(C2OCCO2)cc1)c1ccccc1`, the T/C is, setting by setting: (dose: 100.0 mg/kg/injection, schedule: Q04DX002 (ip), vehicle: saline with Tween-80) 111 % of control; (dose: 200.0 mg/kg/injection, schedule: Q04DX002 (ip), vehicle: saline with Tween-80) 103 % of control; (dose: 400.0 mg/kg/injection, schedule: Q04DX002 (ip), vehicle: saline with Tween-80) 92 % of control.
For the molecule `CCOC(=O)c1c[nH]c2ccc(N(CCCl)CCCl)cc12`, the T/C is 160 % of control (dose: 5.33 mg/kg/injection, schedule: Q04DX003 (ip), vehicle: saline with Tween-80); 150 % of control (dose: 6.25 mg/kg/injection, schedule: Q01DX009 (ip), vehicle: saline with Tween-80); 160 % of control (dose: 8.0 mg/kg/injection, schedule: Q04DX003 (ip), vehicle: saline with Tween-80); 170 % of control (dose: 12.0 mg/kg/injection, schedule: Q04DX003 (ip), vehicle: saline with Tween-80); 181 % of control (dose: 12.5 mg/kg/injection, schedule: Q01DX009 (ip), vehicle: saline with Tween-80); 185 % of control (dose: 18.0 mg/kg/injection, schedule: Q04DX003 (ip), vehicle: saline with Tween-80). Further, under “dose: 25.0 mg/kg/injection, schedule: Q01DX009 (ip), vehicle: saline with Tween-80”, the T/C is 109 % of control.
With `O=C(O)c1ccc(-c2nn[nH]n2)cc1`, the T/C by setting is: (dose: 6.25 mg/kg/injection, schedule: Q01DX009 (ip), vehicle: Klucel (hydroxypropylcellulose) (HPC)) 107 % of control; under setting [6], 103 % of control; under setting [7], 110 % of control; under setting [9], 92 % of control; under setting [15], 89 % of control.
Take `CN1C(=O)C23CCCN2C(=O)C1(C)SC(=N)S3` (stereo unspecified): the T/C is, setting by setting: (dose: 25.0 mg/kg/injection, schedule: Q04DX003 (ip), vehicle: suspension in saline) 101 % of control; (dose: 50.0 mg/kg/injection, schedule: Q04DX003 (ip), vehicle: suspension in saline) 95 % of control; (dose: 100.0 mg/kg/injection, schedule: Q04DX003 (ip), vehicle: suspension in saline) 95 % of control.
With `CCC(=O)NC(CC(C)C)C(=O)O` (stereo unspecified), the T/C is, setting by setting: (dose: 12.5 mg/kg/injection, schedule: Q01DX009 (ip), vehicle: saline) 111 % of control; (dose: 25.0 mg/kg/injection, schedule: Q01DX009 (ip), vehicle: saline) 95 % of control; (dose: 50.0 mg/kg/injection, schedule: Q01DX009 (ip), vehicle: saline) 89 % of control; (dose: 200.0 mg/kg/injection, schedule: Q01DX009 (ip), vehicle: saline) 107 % of control.
Consider `CCCCCNCC(=O)O`, for which the T/C under setting [10] is 91 % of control and the T/C under setting [11] was 96 % of control.
`c1ccc(Nc2nnc(-c3ccc4c(c3)OCO4)o2)cc1`: the T/C runs as follows: under setting [12], 91 % of control; under setting [13], 92 % of control; under setting [14], 100 % of control.
As to `C=CCC(C=C=CCN(C)C)CO` (stereo unspecified), the T/C under setting [10] is 103 % of control and the T/C under setting [11] is 104 % of control.
As to `CC1=CC2(CC(C)(C)C1)N(c1ccccc1)C(=O)C2(c1ccccc1)c1ccccc1` (stereo unspecified), the T/C runs as follows: under setting [12], 91 % of control; under setting [13], 91 % of control; under setting [14], 87 % of control.
